From patent publication US20240018105A1, “TROPOLONE DERIVATIVES AND TAUTOMERS THEREOF FOR IRON REGULATION IN ANIMALS” (Kinesid Therapeutics, Inc., priority 2019, published 2024)

Tests used:
[1] = system: DMT1-deficient Caco-2 cells; experiment: shDMT1-Caco2 55Fe transport assay; format: cell-based
Source text: Assay 2: shDMT1-Caco2 ^55Fe Transport Assay to Assess Ligand Ability in Transporting Fe (III)
Cells: DMT1-deficient Caco-2 cells (alias: “shDMT1,” or “4A” cells) were from Grillo et al. Science, 2017, and were cryopreserved in liquid nitrogen prior to use.
Reagents and supplies: ^55FeCl3 was obtained from PerkinElmer (Boston, MA). Iron(III) chloride (FeCl3) hexahydrate was obtained from Sigma. Dulbecco's Modified Eagle Medium (DMEM), fetal bovine serum (FBS), L-glutamine, MEM nonessential amino acids, penicillin-streptomycin, G418, formic acid, methanol, high-purity water, ammonium formate, dimethyl sulfoxide (DMSO) were purchased from Fisher Scientific. Propranolol, atenolol and carbutamide were obtained from Sigma-Aldrich Chemical Company (St Louis, MO). Scintillation cocktail was obtained from Research Product International Co. (Mount Prospect, IL). Stericup filter system (PES membrane, 0.22 um pore size) was purchased from Fisher Scientific. Coming item #3378 24-well transwell insert plates. Test articles: known compounds hinokitiol and deferiprone were purchased from Sigma. They are tested side by side with the small molecule ligands disclosed in this application. DMSO stocks (10 mM, which is 1,000× of the 10 μM dose level) of hinokitiol or test articles were prepared. A stock solution of 25 mM deferiprone in DMSO was prepared. The DMSO stock solutions were stored at −20° C. or below when not in use.
The growth medium was prepared according to the following table
Apical media (serum free DMEM, 10 mM MES, pH 6.5) was prepared. Apical master mix media was prepared fresh with the addition of 200 nM ^55Fe before each experiment. For the negative control propranolol and atenolol wells, 200 nM of non-radioactive iron was used.
The basolateral media was serum-free DMEM, 10 mM HEPES, 2% bovine serum albumin (BSA), pH 7.4.
For each experiment, cells were seeded into the 24-well transwell plates (0.5 mL of 50,000 cells/mL) with growth media. The basolateral companion plate was loaded with 1 mL of growth media. After 12-24 hr, both the apical and basolateral chamber were replaced with growth media. The apical media was changed 3× per week for 21-28 days, including a media change exactly 48 hr before the assay date.
On the assay day, the TEER values were measured and the average TEER values was obtained. Individual wells with TEER vaule >35% lower than the average of all wells were excluded. For the qualified wells, the apical layer (twice) and basolaterial (once) chambers were washed with PBS. The basolateral companion plate was then filled with 1 mL of basolateral media. Via addition down the side-wall of the apical well, 300 μL per well of the apical assay master mix, with the indicated dose level of test article, was added. Each dose was tested in triplicate. The plates were incubated (5% CO2 and 90% humidity at 37° C.) for the indicated timepoints. At each indicated timepoint, the basolateral supernatant was gently mixed via pipetting, and 200 μL of the basolateral supernatant was transferred to scintillation vials. To each scintillation counting vial, 5 mL of scintillation cocktail fluid was added. For each scintillation vial, the radioactivity (CPM) was determined with liquid scintillation counter LS6500. The counting time per vial was 5 min.
All raw CPM values are divided by the average value of blank DMSO solution to give a fold of change above the DMSO value. The mean and standard deviation of each compound at each concentration level and at each time point measured was calculated to give the fold change (fc) value.
For rank order compounds, the fc value of a ligand at 4 h time point is further divided by the fold change (fc) value of hinokitiol (a positive control compound) at an equimolar concentration to arrive at the FC (normalized fold of change) value. Data reported in Tables 1 and 2 is 4 hr time point FC=fc-ligand @ 3 uM/fc-hino @ 3 uM, and FC hino=1.

[2] = Human liver microsomal stability assay; format: in vitro ADME
Source text: (§1) Compounds of the present disclosure were further evaluated in standard in vitro and in vivo Absorption, Distribution, Metabolism, Excretion (ADME) and Drug Metabolism and Pharmacokinetics (DMPK) assays to assess drug profiles important for further drug development.
(§2) Such assessments included human and mouse liver microsomal stability assays as well as 6-hour mouse PK studies.

[3] = Ligand facilitated Fe(III) efflux from liposomes; conditions: 10 uM ligand concentration
In short: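 POPC:cholesterol liposomes loaded with Fe(III)-citrate (pH 7.0), used at 1 mM phosphorus with 1 mM ferrozine outside. Ligand at 40–1.25 μM final, in triplicate; absorbance at 562 nm read every 60 s for 120 min. Efflux rate k from single-phase association fit, averaged over triplicates.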

Mouse 6-hour PK study = conditions: in vivo
Source text: as §1, §2

[4] = Mouse liver microsomal stability assay; format: in vitro ADME
Source text: as §1, §2

O=c1cccc(-c2cncc(F)c2)cc1O [Ex.1, 4-(5-fluoropyridin-3-yl)-2-hydroxycyclohepta-2,4,6-trien-1-one]
Caco2 shDMT1 transport FC @ 3 μM, 4h ([1]; Caco-2): 0.01-0.5 | half-life ([2]; human, microsomes): > 2 h | microsomal CLint ([2]; human, microsomes): < 11.6 µL/min/mg | Liposome Fe transport kefflux at 10 10 μM ([3]; Table 1): 5-7.5 | AUC(0-t) (Mouse 6-hour PK study): 5000 to 20000 ng·h/mL | Cmax (Mouse 6-hour PK study): 5000 to 20000 ng/mL | half-life (Mouse 6-hour PK study): < 1.25 h | mouse 6-hour PK properties compared to hinokitiol (Mouse 6-hour PK study): one or more improved mouse 6-hour PK properties compared to hinokitiol | half-life ([4]; mouse, microsomes): > 2 h | microsomal CLint ([4]; mouse, microsomes): < 11.6 µL/min/mg

O=c1cccc(-c2ccc(F)cn2)cc1O [Ex.3, 4-(5-fluoropyridin-2-yl)-2-hydroxycyclohepta-2,4,6-trien-1-one]
Caco2 shDMT1 transport FC @ 3 μM, 4h ([1]; Caco-2): 0.01-0.5 | half-life ([2]; human, microsomes): > 2 h | microsomal CLint ([2]; human, microsomes): < 11.6 µL/min/mg | Liposome Fe transport kefflux at 10 10 μM ([3]; Table 1): 5-7.5 | AUC(0-t) (Mouse 6-hour PK study): 5000 to 20000 ng·h/mL | Cmax (Mouse 6-hour PK study): 1500 to 5000 ng/mL | half-life (Mouse 6-hour PK study): 1.25 to 4.99 h | mouse 6-hour PK properties compared to hinokitiol (Mouse 6-hour PK study): one or more improved mouse 6-hour PK properties compared to hinokitiol | half-life ([4]; mouse, microsomes): > 2 h | microsomal CLint ([4]; mouse, microsomes): < 11.6 µL/min/mg

Cc1ccc(-c2cncc(F)c2)cc(O)c1=O [Ex.16, 4-(5-fluoropyridin-3-yl)-2-hydroxy-7-methylcyclohepta-2,4,6-trien-1-one]
Caco2 shDMT1 transport FC @ 3 μM, 4h ([1]; Caco-2): 0.5-1 | half-life ([2]; human, microsomes): > 2 h | microsomal CLint ([2]; human, microsomes): < 11.6 µL/min/mg | Liposome Fe transport kefflux at 10 10 μM ([3]; Table 1): 10-25 | AUC(0-t) (Mouse 6-hour PK study): > 20000 ng·h/mL | Cmax (Mouse 6-hour PK study): 5000 to 20000 ng/mL | half-life (Mouse 6-hour PK study): 1.25 to 4.99 h | mouse 6-hour PK properties compared to hinokitiol (Mouse 6-hour PK study): one or more improved mouse 6-hour PK properties compared to hinokitiol | half-life ([4]; mouse, microsomes): 1.38 h | microsomal CLint ([4]; mouse, microsomes): 16.7 µL/min/mg

Cc1c(F)cncc1-c1ccc([O-])c(=O)cc1.[Na+] [Ex.23, sodium 4-(5-fluoro-4-methylpyridin-3-yl)-7-oxocyclohepta-1,3,5-trien-1-olate]
Caco2 shDMT1 transport FC @ 3 μM, 4h ([1]; Caco-2): 0.01-0.5 | half-life ([2]; human, microsomes): > 2 h | microsomal CLint ([2]; human, microsomes): < 11.6 µL/min/mg | Liposome Fe transport kefflux at 10 10 μM ([3]; Table 1): 10-25 | AUC(0-t) (Mouse 6-hour PK study): > 20000 ng·h/mL | Cmax (Mouse 6-hour PK study): 5000 to 20000 ng/mL | half-life (Mouse 6-hour PK study): 1.25 to 4.99 h | mouse 6-hour PK properties compared to hinokitiol (Mouse 6-hour PK study): one or more improved mouse 6-hour PK properties compared to hinokitiol | half-life ([4]; mouse, microsomes): > 2 h | microsomal CLint ([4]; mouse, microsomes): < 11.6 µL/min/mg

O=c1ccccc(-c2ccc(F)cn2)c1O [Ex.26, 3-(5-fluoropyridin-2-yl)-2-hydroxycyclohepta-2,4,6-trien-1-one]
Caco2 shDMT1 transport FC @ 3 μM, 4h ([1]; Caco-2): 0.01-0.5 | half-life ([2]; human, microsomes): > 2.5 h | microsomal CLint ([2]; human, microsomes): < 25 µL/min/mg | clearence half-life (t1/2) and/or intrinsic clearence (CLint) compared to hinokitiol ([2]; microsomes): longer clearence half-life (t1/2) and/or lower intrinsic clearence (CLint) than hinokitiol | Liposome Fe transport kefflux at 10 10 μM ([3]; Table 1): 10-25 | AUC(0-t) (Mouse 6-hour PK study): 1500 to 5000 ng·h/mL | Cmax (Mouse 6-hour PK study): 1500 to 5000 ng/mL | half-life (Mouse 6-hour PK study): 1.25 to 4.99 h | mouse 6-hour PK properties compared to hinokitiol (Mouse 6-hour PK study): one or more improved mouse 6-hour PK properties compared to hinokitiol | half-life ([4]; mouse, microsomes): > 2.5 h | microsomal CLint ([4]; mouse, microsomes): < 25 µL/min/mg

Cc1ncc(-c2cccc(=O)c(O)c2)cn1 [Ex.31, 2-hydroxy-4-(2-methylpyrimidin-5-yl)cyclohepta-2,4,6-trien-1-one]
Caco2 shDMT1 transport FC @ 3 μM, 4h ([1]; Caco-2): 0.01-0.5 | half-life ([2]; human, microsomes): > 2 h | microsomal CLint ([2]; human, microsomes): < 11.6 µL/min/mg | Liposome Fe transport kefflux at 10 10 μM ([3]; Table 1): 0.1-5 | AUC(0-t) (Mouse 6-hour PK study): 1500 to 5000 ng·h/mL | Cmax (Mouse 6-hour PK study): 1500 to 5000 ng/mL | half-life (Mouse 6-hour PK study): 1.25 to 4.99 h | mouse 6-hour PK properties compared to hinokitiol (Mouse 6-hour PK study): one or more improved mouse 6-hour PK properties compared to hinokitiol | half-life ([4]; mouse, microsomes): > 2 h | microsomal CLint ([4]; mouse, microsomes): < 11.6 µL/min/mg

Cc1ncc(-c2cccc(=O)c(O)c2)c(C)n1 [Ex.32, 4-(2,4-dimethylpyrimidin-5-yl)-2-hydroxycyclohepta-2,4,6-trien-1-one]
Caco2 shDMT1 transport FC @ 3 μM, 4h ([1]; Caco-2): 0.01-0.5 | half-life ([2]; human, microsomes): > 2 h | microsomal CLint ([2]; human, microsomes): < 11.6 µL/min/mg | Liposome Fe transport kefflux at 10 10 μM ([3]; Table 1): 5-7.5 | AUC(0-t) (Mouse 6-hour PK study): 5000 to 20000 ng·h/mL | Cmax (Mouse 6-hour PK study): 1500 to 5000 ng/mL | half-life (Mouse 6-hour PK study): 1.25 to 4.99 h | mouse 6-hour PK properties compared to hinokitiol (Mouse 6-hour PK study): one or more improved mouse 6-hour PK properties compared to hinokitiol | half-life ([4]; mouse, microsomes): > 2 h | microsomal CLint ([4]; mouse, microsomes): < 11.6 µL/min/mg

O=c1cccc(-c2cnc(C3CC3)nc2)cc1O [Ex.37]
Caco2 shDMT1 transport FC @ 3 μM, 4h ([1]; Caco-2): 0.01-0.5 | half-life ([2]; human, microsomes): > 2 h | microsomal CLint ([2]; human, microsomes): < 11.6 µL/min/mg | Liposome Fe transport kefflux at 10 10 μM ([3]; Table 1): 5-7.5 | AUC(0-t) (Mouse 6-hour PK study): 1500 to 5000 ng·h/mL | Cmax (Mouse 6-hour PK study): 500 to 1500 ng/mL | half-life (Mouse 6-hour PK study): 1.25 to 4.99 h | mouse 6-hour PK properties compared to hinokitiol (Mouse 6-hour PK study): one or more improved mouse 6-hour PK properties compared to hinokitiol | half-life ([4]; mouse, microsomes): > 2 h | microsomal CLint ([4]; mouse, microsomes): < 11.6 µL/min/mg

Cc1ncc(-c2cccc(=O)c(O)c2)cc1F [Ex.57, 4-(5-fluoro-6-methylpyridin-3-yl)-2-hydroxycyclohepta-2,4,6-trien-1-one]
Caco2 shDMT1 transport FC @ 3 μM, 4h ([1]; Caco-2): 0.01-0.5 | half-life ([2]; human, microsomes): > 2 h | microsomal CLint ([2]; human, microsomes): < 11.6 µL/min/mg | Liposome Fe transport kefflux at 10 10 μM ([3]; Table 1): 7.5-10 | AUC(0-t) (Mouse 6-hour PK study): 1500 to 5000 ng·h/mL | Cmax (Mouse 6-hour PK study): 500 to 1500 ng/mL | half-life (Mouse 6-hour PK study): 1.25 to 4.99 h | mouse 6-hour PK properties compared to hinokitiol (Mouse 6-hour PK study): one or more improved mouse 6-hour PK properties compared to hinokitiol | half-life ([4]; mouse, microsomes): > 2 h | microsomal CLint ([4]; mouse, microsomes): < 11.6 µL/min/mg

O=c1ccccc(Oc2ccc(F)cc2F)c1O [Ex.67, 3-(2,4-difluorophenoxy)-2-hydroxycyclohepta-2,4,6-trien-1-one]
Caco2 shDMT1 transport FC @ 3 μM, 4h ([1]; Caco-2): 0.01-0.5 | Liposome Fe transport Kefflux at 10 μM ([3]; Table 2): <0.1 | AUC(0-t) (Mouse 6-hour PK study): 1500 to 5000 ng·h/mL | Cmax (Mouse 6-hour PK study): 1500 to 5000 ng/mL | half-life (Mouse 6-hour PK study): 1.25 to 4.99 h | mouse 6-hour PK properties compared to hinokitiol (Mouse 6-hour PK study): one or more improved mouse 6-hour PK properties compared to hinokitiol

CC(C)c1cccc(=O)c(O)c1 [hinokitiol, reference compound]
Caco2 shDMT1 transport FC @ 3 μM, 4h ([1]; 3 μM, 4 h, fold change normalized to hinokitiol (FC hino=1), Table 1): 1 | Caco2 shDMT1 transport FC @ 3 μM, 4h ([1]; 3 μM, 4 h, fold change normalized to hinokitiol (FC hino=1), Table 2): 1.00 | microsomal CLint ([2]; human liver microsomes, Table 4, read-out: Human CLint): 150 µL/min/mg | half-life ([2]; human liver microsomes, Table 4, read-out: Human t1/2): 0.153 h | Liposome Fe transport Kefflux at 10 μM ([3]; Table 1): 7.77 | Liposome Fe transport Kefflux at 10 μM ([3]; Table 2): 7.77 | microsomal CLint ([4]; mouse liver microsomes, Table 4, read-out: Mouse CLint): 43.4 µL/min/mg | half-life ([4]; mouse liver microsomes, Table 4, read-out: Mouse t1/2): 0.533 h
